The results in this text go back to patent publication US10183950B2, “Thienopyrimidine inhibitors of atypical protein kinase C” (Cancer Research Technology Limited, priority 2011, dated 2019).

Where only a bound is given, the exact number is not on record here.

This assay addresses T1, kinase-domain human PKCι (Homo sapiens, UniProt P41743).
T1 construct: Recombinant, kinase-domain human PKCι is expressed and purified in-house; made in house
T1 sequence (P41743 254-522 limits assumed): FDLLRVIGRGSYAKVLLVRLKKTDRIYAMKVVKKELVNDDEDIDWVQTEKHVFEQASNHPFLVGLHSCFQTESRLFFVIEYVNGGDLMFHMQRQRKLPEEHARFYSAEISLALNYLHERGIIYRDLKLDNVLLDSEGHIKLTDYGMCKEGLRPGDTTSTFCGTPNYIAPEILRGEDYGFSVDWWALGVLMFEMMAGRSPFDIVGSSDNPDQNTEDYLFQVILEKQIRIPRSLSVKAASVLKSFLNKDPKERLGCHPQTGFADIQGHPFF
In words: PKCι IC50 IMAP fluorescence polarisation assay, kinase-domain enzyme. The class given is biochemical. To be noted: kinase domain PKCi at 2 μM ATP; read-out: IC50 in IMAP assay against kinase domain PKCi (Activity). As for the experimental part: Assays are based on the ability of PKCι to phosphorylate a commercially available peptide substrate in vitro. […] Recombinant, full-length human PKCι expressed in Sf21 insect cells is also commercially available. Recombinant, kinase-domain human PKCι is expressed and purified in-house.
The procedure below explains how dose response curves for inhibitors of PKCι are obtained.
Compounds to be tested are dissolved in 100% DMSO. […] 1 μl is plated into 384 well black low-binding flat bottomed assay plates which are used immediately. Dilutions and additions of compound to assay plates are carried out using Matrix WellMate® and Matrix PlateMate® Plus liquid handling systems.
The final concentration of peptide substrate in the assay is 100 nM. […] Relevant controls are included, namely no compound and no enzyme. […] The reaction is allowed to incubate for 60 minutes at room temperature, before the reaction is stopped and developed by the addition of 20 μl IMAP™ development reagent (Molecular Devices). IMAP development reagent consists of 0.25% (v/v) IMAP progressive binding reagent, 17% (v/v) IMAP progressive binding buffer A and 3% (v/v) IMAP progressive binding buffer B. The plates are then incubated for 2 hours at room temperature before being read using an appropriate plate reader, for example a Molecular Devices HT Analyst or a BMG Pherastar.
(Polarisation of emitted light reports the rotation of a fluorescent probe.)

Usually IC50 stands for the midpoint of a concentration-inhibition curve. Consider `C[C@@H](N)CNc1nc(-c2ccncc2)nc2sc3c(c12)CCCC3` [compound 2, (R)-N*1*-(2-Pyridin-4-yl-5,6,7,8-tetrahydro-benzo[4,5]thieno[2,3-d]pyrimidin-4-yl)-propane-1,2-diamine], for which the IC50 fell in the range of 100 to 1000 nM.

In the case of `CN1CCCN(c2nc(-c3ccncc3)nc3sc4c(c23)CCCC4)CC1` [compound 4, 4-(4-Methyl-[1,4]diazepan-1-yl)-2-pyridin-4-yl-5,6,7,8-tetrahydro-benzo[4,5]thieno[2,3-d]pyrimidine], the IC50 lay within 100 to 1000 nM.

Turning to `C[C@H](N)CNc1nc(-c2ccncc2)nc2sc3c(c12)CCCC3` [compound 5, (S)-N*1*-(2-Pyridin-4-yl-5,6,7,8-tetrahydro-benzo[4,5]thieno[2,3-d]pyrimidin-4-yl)-propane-1,2-diamine], the IC50 was < 100 nM.

On to `CSCC[C@@H](N)CNc1nc(-c2ccncc2)nc2sc3c(c12)CCCC3` [compound 6, (R)-4-Methylsulfanyl-N*1*- (2-pyridin-4-yl-5,6,7,8-tetrahydro-benzo[4,5]thieno[2,3-d]pyrimidin-4-yl)-butane-1,2-diamine], for which the IC50 was in the range of 1000 to 10000 nM.

In the case of `N[C@@H](CNc1nc(-c2ccncc2)nc2sc3c(c12)CCCC3)Cc1c[nH]c2ccccc12` [compound 7, (R)-3-(1H-Indol-3-yl)-N*1*- (2-pyridin-4-yl-5,6,7,8-tetrahydro-benzo[4,5]thieno[2,3-d]pyrimidin-4-yl)-propane-1,2-diamine], the IC50 lay within 1000 to 10000 nM.

Take `C[C@H]1CN(c2nc(-c3ccncc3)nc3sc4c(c23)CCCC4)CCN1` [compound 8, 4-((S)-3-Methyl-piperazin-1-yl)-2-pyridin-4-yl-5,6,7,8-tetrahydro-benzo[4,5]thieno[2,3-d]pyrimidine]: the IC50 lay within 100 to 1000 nM.

Regarding `C[C@@H]1CN(c2nc(-c3ccncc3)nc3sc4c(c23)CCCC4)C[C@H](C)N1` [compound 9, 4-((3R,5S)-3,5-Dimethyl-piperazin-1-yl)-2-pyridin-4-yl-5,6,7,8-tetrahydro-benzo[4,5]thieno[2,3-d]pyrimidine], the IC50 lay in the range of 1000 to 10000 nM.

For the molecule `C[C@@H]1CN[C@@H](C)CN1c1nc(-c2ccncc2)nc2sc3c(c12)CCCC3` [compound 10, 4-((2R,5S)-2,5-Dimethyl-piperazin-1-yl)-2-pyridin-4-yl-5,6,7,8-tetrahydro-benzo[4,5]thieno[2,3-d]pyrimidine], the 50% inhibitory concentration (IC50) is 1000 to 10000 nM.

Take `N[C@H]1C[C@@H]1Nc1nc(-c2ccncc2)nc2sc3c(c12)CCCC3` [compound 11, (1S,2S)-N-(2-Pyridin-4-yl-5,6,7,8-tetrahydro-benzo[4,5]thieno[2,3-d]pyrimidin-4-yl)-cyclopropane-1,2-diamine]: the IC50 lay within 10000 to 40000 nM.

As for `CNCCNc1nc(-c2ccncc2)nc2sc3c(c12)CCCC3` [compound 13, N-Methyl-N′-(2-pyridin-4-yl-5,6,7,8-tetrahydro-benzo[4,5]thieno[2,3-d]pyrimidin-4-yl)-ethane-1,2-diamine], the IC50 fell in the range of 100 to 1000 nM.

As to `c1cc(-c2nc(N3CCCNCC3)c3c4c(sc3n2)CCCC4)ccn1` [compound 14, 4-[1,4]Diazepan-1-yl-2-pyridin-4-yl-5,6,7,8-tetrahydro-benzo[4,5]thieno[2,3-d]pyrimidine], the IC50 was in the range of 100 to 1000 nM.

For the molecule `CN(CCN)c1nc(-c2ccncc2)nc2sc3c(c12)CCCC3` [compound 15, N*1*-Methyl-N*1*-(2-pyridin-4-yl-5,6,7,8-tetrahydro-benzo[4,5]thieno[2,3-d]pyrimidin-4-yl)-ethane-1,2-diamine], the half-inhibitory concentration (IC50) lay within 100 to 1000 nM.

For `CC(C)C[C@@H](N)CNc1nc(-c2ccncc2)nc2sc3c(c12)CCCC3` [compound 16, (R)-4-Methyl-N*1*-(2-pyridin-4-yl-5,6,7,8-tetrahydro-benzo[4,5]thieno[2,3-d]pyrimidin-4-yl)-pentane-1,2-diamine], the IC50 lay within 1000 to 10000 nM.

For the molecule `CC[C@@H](N)CNc1nc(-c2ccncc2)nc2sc3c(c12)CCCC3` [compound 17, (R)-N*1*-(2-Pyridin-4-yl-5,6,7,8-tetrahydro-benzo[4,5]thieno[2,3-d]pyrimidin-4-yl)-butane-1,2-diamine], the IC50 lay in the range of 1000 to 10000 nM.

`c1cc(-c2nc(N3C[C@@H]4C[C@H]3CN4)c3c4c(sc3n2)CCCC4)ccn1` [compound 18, 4-(1S,4S)-2,5-Diaza-bicyclo[2.2.1]hept-2-yl-2-pyridin-4-yl-5,6,7,8-tetrahydro-benzo[4,5]thieno[2,3-d]pyrimidine]: the concentration for half-maximal inhibition (IC50) is 100 to 1000 nM.

Regarding `c1cc(-c2nc(N[C@@H]3CCNC3)c3c4c(sc3n2)CCCC4)ccn1` [compound 19, (2-pyridin-4-yl-5,6,7,8-tetrahydro-benzo[4,5]thieno[2,3-d]pyrimidin-4-yl)-(R)-pyrrolidin-3-yl-amine], the IC50 is 100 to 1000 nM.

In the case of `c1cc(-c2nc(N[C@H]3CCNC3)c3c4c(sc3n2)CCCC4)ccn1` [compound 20, (2-Pyridin-4-yl-5,6,7,8-tetrahydro-benzo[4,5]thieno[2,3-d]pyrimidin-4-yl)-(S)-pyrrolidin-3-yl-amine], the IC50 fell in the range of 1000 to 10000 nM.

`CC1CCc2c(sc3nc(-c4ccncc4)nc(NCCN)c23)C1` (centres unmarked) [compound 21, N*1*-(7-Methyl-2-pyridin-4-yl-5,6,7,8-tetrahydro-benzo[4,5]thieno[2,3-d]pyrimidin-4-yl)-ethane-1,2-diamine]: the IC50 was in the range of 100 to 1000 nM.

For the molecule `CC1CCc2c(sc3nc(-c4ccncc4)nc(NC[C@H](C)N)c23)C1` (stereo partly drawn) [compound 22, (S)-N*1*-(7-Methyl-2-pyridin-4-yl-5,6,7,8-tetrahydro-benzo[4,5]thieno[2,3-d]pyrimidin-4-yl)-propane-1,2-diamine], the half-maximal inhibitory concentration (IC50) fell in the range of 1000 to 10000 nM.

Take `CC1CCc2c(sc3nc(-c4ccncc4)nc(NC[C@@H](C)N)c23)C1` (stereo partly drawn) [compound 23, (R)-N*1*-(7-Methyl-2-pyridin-4-yl-5,6,7,8-tetrahydro-benzo[4,5]thieno[2,3-d]pyrimidin-4-yl)-propane-1,2-diamine]: the IC50 was in the range of 1000 to 10000 nM.

As for `NCCNc1nc(-c2ccncc2)nc2sc3c(c12)CCCCCC3` [compound 24, N*1*-(2-Pyridin-4-yl-5,6,7,8,9,10-hexahydro-11-thia-1,3-diaza-cycloocta[a]inden-4-yl)-ethane-1,2-diamine], the 50% inhibitory concentration (IC50) lay in the range of 100 to 1000 nM.

Regarding `C[C@H](N)CNc1nc(-c2ccncc2)nc2sc3c(c12)CCCCCC3` [compound 25, (S)-N*1*-(2-Pyridin-4-yl-5,6,7,8,9, 10-hexahydro-11-thia-1,3-diaza-cycloocta[a]inden-4-yl)-propane-1,2-diamine], the IC50 lay within 1000 to 10000 nM.

With `C[C@@H](N)CNc1nc(-c2ccncc2)nc2sc3c(c12)CCCCCC3` [compound 26, (R)-N*1*-(2-Pyridin-4-yl-5,6,7,8,9, 10-hexahydro-11-thia-1,3-diaza-cycloocta[a]inden-4-yl)-propane-1,2-diamine], the half-maximal inhibitory concentration (IC50) was 1000 to 10000 nM.

For the molecule `CC(C)Cc1csc2nc(-c3ccncc3)nc(NCCN)c12` [compound 28, N*1*-(5-Isobutyl-2-pyridin-4-yl-thieno[2,3-d]pyrimidin-4-yl)-ethane-1,2-diamine], the half-inhibitory concentration (IC50) lay in the range of 100 to 1000 nM.

Take `CC(C)Cc1csc2nc(-c3ccncc3)nc(NC[C@H](C)N)c12` [compound 29, (S)-N*1*-(5-Isobutyl-2-pyridin-4-yl-thieno[2,3-d]pyrimidin-4-yl)-propane-1,2-diamine]: the half-inhibitory concentration (IC50) lay in the range of 100 to 1000 nM.

For `CC(C)Cc1csc2nc(-c3ccncc3)nc(NC[C@@H](C)N)c12` [compound 30, (R)-N*1*-(5-Isobutyl-2-pyridin-4-yl-thieno[2,3-d]pyrimidin-4-yl)-propane-1,2-diamine], the IC50 was in the range of 1000 to 10000 nM.

For the molecule `CCc1c(C)sc2nc(-c3ccncc3)nc(NC[C@H](C)N)c12` [compound 31, (S)-N*1*-(5-Ethyl-6-methyl-2-pyridin-4-yl-thieno[2,3-d]pyrimidin-4-yl)-propane-1,2-diamine], the IC50 was 1000 to 10000 nM.

For the molecule `CCc1c(C)sc2nc(-c3ccncc3)nc(NC[C@@H](C)N)c12` [compound 32, (R)-N*1*-(5-Ethyl-6-methyl-2-pyridin-4-yl-thieno[2,3-d]pyrimidin-4-yl)-propane-1,2-diamine], the 50% inhibitory concentration (IC50) was in the range of 10000 to 40000 nM.

As to `CCc1cc2c(NCCN)nc(-c3ccncc3)nc2s1` [compound 33, N*1*-(6-Ethyl-2-pyridin-4-yl-thieno[2,3-d]pyrimidin-4-yl)-ethane-1,2-diamine], the IC50 lay within 1000 to 10000 nM.

`CCc1cc2c(NC[C@H](C)N)nc(-c3ccncc3)nc2s1` [compound 34, (S)-N*1*-(6-Ethyl-2-pyridin-4-yl-thieno[2,3-d]pyrimidin-4-yl)-propane-1,2-diamine]: the concentration for half-maximal inhibition (IC50) lay within 1000 to 10000 nM.

As for `CCc1cc2c(NC[C@@H](C)N)nc(-c3ccncc3)nc2s1` [compound 35, (R)-N*1*-(6-Ethyl-2-pyridin-4-yl-thieno[2,3-d]pyrimidin-4-yl)-propane-1,2-diamine], the IC50 was 1000 to 10000 nM.

For the molecule `Cc1sc2nc(-c3ccncc3)nc(NCCN)c2c1C` [compound 36, N*1*-(5,6-Dimethyl-2-pyridin-4-yl-thieno[2,3-d]pyrimidin-4-yl)-ethane-1,2-diamine], the IC50 is 100 to 1000 nM.
